The text below walks through data of patent publication US7713994B2 (Wyeth LLC, priority 2005, dated 2010).

This test concerns the target T1, cyclin D1/cdk 4 enzyme (Homo sapiens, UniProt P11802).
T1 construct: made in house; host or cells: Sf9 insect cells, recombinant baculovirus
Description: CDK4 ELISA kinase assay (phospho-Rb ser 795 detection). Type of test: biochemical. The settings on record: In Vitro Enzyme Assay, cyclin D1/cdk 4, read-out: CDK4 IC50. The essentials:
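GST-Rb C-terminal fragment coated on plates; partially purified Sf9-expressed cyclin D1/CDK4, cyclin E/CDK2 or cyclin B/CDK1 with 200 μM ATP, pH 7.5 HEPES/MgCl2 buffer, 1 h at 30 °C; screen compound final 10 μg/ml. Phospho-Rb Ser795 detected by antibody ELISA (TMB, A450); % of control, IC50 from background-subtracted inhibition curves.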
Background: An ELISA detects its analyte on a solid surface through an enzyme-linked reagent.

Each structure is given as a SMILES string. pIC50: −log10 of the molar value.

For orientation: pIC50 means the negative decadic logarithm of the IC50, by convention in mol/L.

T1 sequence (P11802 whole entry, species assumed): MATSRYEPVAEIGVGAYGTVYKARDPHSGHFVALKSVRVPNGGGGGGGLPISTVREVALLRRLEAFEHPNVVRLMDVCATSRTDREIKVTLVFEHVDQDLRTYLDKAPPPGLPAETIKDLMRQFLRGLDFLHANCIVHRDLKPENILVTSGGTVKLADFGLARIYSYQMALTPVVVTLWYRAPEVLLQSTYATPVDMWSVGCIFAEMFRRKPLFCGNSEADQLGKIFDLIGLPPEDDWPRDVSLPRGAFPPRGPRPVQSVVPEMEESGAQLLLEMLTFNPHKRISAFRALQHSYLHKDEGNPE
T1 sequence (P24385 whole entry partner, species assumed): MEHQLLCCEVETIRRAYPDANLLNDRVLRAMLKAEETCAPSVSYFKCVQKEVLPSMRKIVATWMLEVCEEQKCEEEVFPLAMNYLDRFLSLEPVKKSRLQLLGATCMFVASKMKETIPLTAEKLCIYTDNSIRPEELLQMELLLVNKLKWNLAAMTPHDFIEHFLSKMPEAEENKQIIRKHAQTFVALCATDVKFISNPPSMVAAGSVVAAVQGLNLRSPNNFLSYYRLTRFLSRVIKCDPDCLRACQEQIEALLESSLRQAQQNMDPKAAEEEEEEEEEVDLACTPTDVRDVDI

As for `NS(=O)(=O)c1ccc(CNC=C2C(=O)NC(=O)c3ccc(-c4ccccc4C(F)(F)F)cc32)cc1` [Example 745, 4-({[1,3-Dioxo-6-(2-trifluoromethyl-phenyl)-2,3-dihydro-1H-isoquinolin-4-ylidenemethyl]-amino}-methyl)-benzenesulfonamide], the pIC50 is 4.70.

In the case of `CC(=O)c1ccc(-c2ccc3c(c2)C(=CNCc2ccc(S(N)(=O)=O)cc2)C(=O)NC3=O)cc1` [Example 746, 4-({[6-(4-Acetyl-phenyl)-1,3-dioxo-2,3-dihydro-1H-isoquinolin-4-ylidenemethyl]-amino}-methyl)-benzenesulfonamide], the pIC50 is 6.30. To `CC(=O)c1cccc(-c2ccc3c(c2)C(=CNCc2ccc(S(N)(=O)=O)cc2)C(=O)NC3=O)c1` [Example 747, 4-({[6-(3-Acetyl-phenyl)-1,3-dioxo-2,3-dihydro-1H-isoquinolin-4-ylidenemethyl]-amino}-methyl)-benzenesulfonamide] belongs 4.84. As for `CC(=O)c1ccccc1-c1ccc2c(c1)C(=CNCc1ccc(S(N)(=O)=O)cc1)C(=O)NC2=O` [Example 748, 4-({[6-(2-Acetyl-phenyl)-1,3-dioxo-2,3-dihydro-1H-isoquinolin-4-ylidenemethyl]-amino}-methyl)-benzenesulfonamide], the pIC50 is 4.34. To `Cc1ccccc1-c1ccc2c(c1)C(=CNCc1ccc(S(N)(=O)=O)cc1)C(=O)NC2=O` [Example 754, 4-{[(1,3-Dioxo-6-o-tolyl-2,3-dihydro-1H-isoquinolin-4-ylidenemethyl)-amino]-methyl}-benzenesulfonamide] belongs 4.96. Next, `NS(=O)(=O)c1ccc(CNC=C2C(=O)NC(=O)c3ccc(-c4ccc(-c5ccccc5)cc4)cc32)cc1` [Example 757, 4-{[(6-Biphenyl-4-yl-1,3-dioxo-2,3-dihydro-1H-isoquinolin-4-ylidenemethyl)-amino]-methyl}-benzenesulfonamide]: 4.51; `NS(=O)(=O)c1ccc(CNC=C2C(=O)NC(=O)c3ccc(-c4cccc(-c5ccccc5)c4)cc32)cc1` [Example 758, 4-{[(6-Biphenyl-3-yl-1,3-dioxo-2,3-dihydro-1H-isoquinolin-4-ylidenemethyl)-amino]-methyl}-benzenesulfonamide]: 4.59; `NS(=O)(=O)c1ccc(CNC=C2C(=O)NC(=O)c3ccc(-c4ccc(C=CC(=O)O)cc4)cc32)cc1` [Example 759, 3-(4-{1,3-Dioxo-4-[(4-sulfamoyl-benzylamino)-methylene]-1,2,3,4-tetrahydro-isoquinolin-6-yl}-phenyl)-acrylic acid]: 5.77.

Regarding `NS(=O)(=O)c1ccc(CNC=C2C(=O)NC(=O)c3ccc(-c4cccc(C=CC(=O)O)c4)cc32)cc1` [Example 760, 3-(3-{1,3-Dioxo-4-[(4-sulfamoyl-benzylamino)-methylene]-1,2,3,4-tetrahydro-isoquinolin-6-yl}-phenyl)-acrylic acid], the pIC50 was 5.66. As to `CC(C)c1ccc(-c2ccc3c(c2)C(=CNCc2ccc(S(N)(=O)=O)cc2)C(=O)NC3=O)cc1` [Example 761, 4-({[6-(4-Isopropyl-phenyl)-1,3-dioxo-2,3-dihydro-1H-isoquinolin-4-ylidenemethyl]-amino}-methyl)-benzenesulfonamide], the pIC50 was 4.74. To `CC(C)c1cccc(-c2ccc3c(c2)C(=CNCc2ccc(S(N)(=O)=O)cc2)C(=O)NC3=O)c1` [Example 762, 4-({[6-(3-Isopropyl-phenyl)-1,3-dioxo-2,3-dihydro-1H-isoquinolin-4-ylidenemethyl]-amino}-methyl)-benzenesulfonamide] belongs 4.47.

As to `CSc1ccc(-c2ccc3c(c2)C(=CNCc2ccc(S(N)(=O)=O)cc2)C(=O)NC3=O)cc1` [Example 763, 4-({[6-(4-Methylsulfanyl-phenyl)-1,3-dioxo-2,3-dihydro-1H-isoquinolin-4-ylidenemethyl]-amino}-methyl)-benzenesulfonamide], the pIC50 is 4.30.
